For assay [1], the target named is T1, 5-hydroxytryptamine receptor 1A (Homo sapiens, UniProt P08908).
T1 sequence (P08908 whole entry): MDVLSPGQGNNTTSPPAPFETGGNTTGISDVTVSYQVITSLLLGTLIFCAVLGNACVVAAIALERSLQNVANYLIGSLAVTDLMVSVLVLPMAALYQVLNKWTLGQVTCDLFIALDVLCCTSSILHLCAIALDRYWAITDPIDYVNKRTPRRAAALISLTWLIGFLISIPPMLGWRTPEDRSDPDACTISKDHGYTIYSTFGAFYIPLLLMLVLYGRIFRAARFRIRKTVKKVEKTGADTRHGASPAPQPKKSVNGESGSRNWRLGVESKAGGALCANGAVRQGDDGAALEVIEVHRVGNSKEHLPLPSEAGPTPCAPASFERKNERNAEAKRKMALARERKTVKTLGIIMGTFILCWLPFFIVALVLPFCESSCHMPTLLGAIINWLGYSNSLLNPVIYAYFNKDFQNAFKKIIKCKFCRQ
The assay can be described thus: Displacement of [3H]8-OH-DPAT from human recombinant 5-HT1A receptor expressed in HeLa cell membrane after 30 mins by liquid scintillation counting. Type of assay: cell membranes. (Displacement assays read how much labelled ligand stays bound in the presence of the test substance.)

Assay [2] deals with T2, 5-hydroxytryptamine receptor 1A (Homo sapiens) (UniProt P08908).
T2 sequence (whole entry): T1 sequence (P08908 whole entry)
Description: Agonist activity at human recombinant 5-HT1A receptor expressed in HeLa cell membrane after 20 mins by [35S]GTPgammaS binding assay. The assay is classed as functional, cell membranes. (GTPγS resists hydrolysis and so accumulates on activated G proteins.)

Assay [3] addresses T3, Alpha-1A adrenergic receptor (Homo sapiens, UniProt P35348).
T3 sequence (P35348 whole entry): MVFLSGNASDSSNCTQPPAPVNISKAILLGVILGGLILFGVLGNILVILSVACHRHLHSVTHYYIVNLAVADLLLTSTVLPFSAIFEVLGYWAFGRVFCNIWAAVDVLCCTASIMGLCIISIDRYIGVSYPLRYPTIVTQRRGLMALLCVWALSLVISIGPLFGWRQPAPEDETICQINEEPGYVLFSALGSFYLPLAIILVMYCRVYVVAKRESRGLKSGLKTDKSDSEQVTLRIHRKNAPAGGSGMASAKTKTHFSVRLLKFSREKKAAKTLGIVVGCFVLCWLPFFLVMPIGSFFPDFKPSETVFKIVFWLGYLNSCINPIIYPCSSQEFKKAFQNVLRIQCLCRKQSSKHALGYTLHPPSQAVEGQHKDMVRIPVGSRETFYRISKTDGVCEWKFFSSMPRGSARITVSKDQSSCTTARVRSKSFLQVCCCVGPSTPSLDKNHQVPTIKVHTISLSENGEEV
The assay can be described thus: Displacement of [3H]prazosin from human recombinant alpha1A adrenoceptor expressed in CHO cell membrane after 30 mins by liquid scintillation counting. The assay is classed as cell membranes.

Assay [4] deals with T4, Alpha-1B adrenergic receptor (Homo sapiens, UniProt P35368).
T4 sequence (P35368 whole entry): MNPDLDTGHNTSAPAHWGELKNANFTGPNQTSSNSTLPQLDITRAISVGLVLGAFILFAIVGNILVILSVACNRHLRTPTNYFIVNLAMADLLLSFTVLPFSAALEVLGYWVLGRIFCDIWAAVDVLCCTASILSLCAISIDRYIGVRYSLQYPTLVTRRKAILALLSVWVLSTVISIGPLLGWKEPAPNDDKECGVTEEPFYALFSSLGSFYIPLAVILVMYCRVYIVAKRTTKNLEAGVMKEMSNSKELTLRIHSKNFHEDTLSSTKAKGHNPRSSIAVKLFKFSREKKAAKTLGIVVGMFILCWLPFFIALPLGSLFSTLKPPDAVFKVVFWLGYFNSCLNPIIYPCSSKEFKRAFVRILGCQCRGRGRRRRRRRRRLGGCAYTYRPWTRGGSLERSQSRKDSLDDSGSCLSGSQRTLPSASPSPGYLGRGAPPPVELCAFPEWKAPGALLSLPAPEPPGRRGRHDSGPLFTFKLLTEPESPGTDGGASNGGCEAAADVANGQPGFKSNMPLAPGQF
The assay can be described thus: Displacement of [3H]prazosin from human recombinant alpha1B adrenoceptor expressed in CHO cell membrane after 30 mins by liquid scintillation counting. The assay is classed as cell membranes.

Assay [5] deals with T5, Alpha-1D adrenergic receptor (Homo sapiens, UniProt P25100).
T5 sequence (P25100 whole entry): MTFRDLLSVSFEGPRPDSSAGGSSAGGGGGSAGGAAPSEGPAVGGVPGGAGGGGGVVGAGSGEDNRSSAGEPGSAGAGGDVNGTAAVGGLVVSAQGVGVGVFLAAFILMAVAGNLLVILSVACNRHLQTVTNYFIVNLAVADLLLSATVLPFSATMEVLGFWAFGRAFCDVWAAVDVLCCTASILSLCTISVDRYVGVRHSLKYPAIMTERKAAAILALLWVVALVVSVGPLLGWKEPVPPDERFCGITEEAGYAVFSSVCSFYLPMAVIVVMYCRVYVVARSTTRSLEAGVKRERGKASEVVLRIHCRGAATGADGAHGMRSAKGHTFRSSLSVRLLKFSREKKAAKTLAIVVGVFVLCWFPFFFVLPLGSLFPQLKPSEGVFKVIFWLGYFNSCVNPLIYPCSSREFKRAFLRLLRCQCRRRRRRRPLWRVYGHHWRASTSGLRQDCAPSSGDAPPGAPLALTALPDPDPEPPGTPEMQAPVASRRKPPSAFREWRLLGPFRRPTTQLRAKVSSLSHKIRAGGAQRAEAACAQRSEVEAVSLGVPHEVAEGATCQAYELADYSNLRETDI
The assay can be described thus: Displacement of [3H]prazosin from human recombinant alpha1D adrenoceptor expressed in CHO cell membrane after 30 mins by liquid scintillation counting. Type of assay: cell membranes.

Assay [6] has as its system CHO. Description: Selectivity index, ratio of pKi for human recombinant 5-HT1A receptor expressed in HeLa cell membrane to pKi for human recombinant alpha1D adrenoceptor expressed in CHO cell membrane. The assay is classed as cell-based.
The subject of assay [7] is CHO. The assay can be described thus: Selectivity index, ratio of pKi for human recombinant alpha1A adrenoceptor to pKi for human recombinant alpha1B adrenoceptor expressed in CHO cell membrane. Type of assay: cell-based.
The test system of assay [8] is CHO. The assay can be described thus: Selectivity index, ratio of pKi for human recombinant alpha1D adrenoceptor to pKi for human recombinant alpha1A adrenoceptor expressed in CHO cell membrane. Type of assay: cell-based.
The subject of assay [9] is CHO. Description: Selectivity index, ratio of pKi for human recombinant alpha1D adrenoceptor to pKi for human recombinant alpha1B adrenoceptor expressed in CHO cell membrane. The assay is classed as cell-based.
The target of assay [10] is T6, Alpha-1A adrenergic receptor (Rattus norvegicus) (UniProt P43140).
T6 sequence (whole entry): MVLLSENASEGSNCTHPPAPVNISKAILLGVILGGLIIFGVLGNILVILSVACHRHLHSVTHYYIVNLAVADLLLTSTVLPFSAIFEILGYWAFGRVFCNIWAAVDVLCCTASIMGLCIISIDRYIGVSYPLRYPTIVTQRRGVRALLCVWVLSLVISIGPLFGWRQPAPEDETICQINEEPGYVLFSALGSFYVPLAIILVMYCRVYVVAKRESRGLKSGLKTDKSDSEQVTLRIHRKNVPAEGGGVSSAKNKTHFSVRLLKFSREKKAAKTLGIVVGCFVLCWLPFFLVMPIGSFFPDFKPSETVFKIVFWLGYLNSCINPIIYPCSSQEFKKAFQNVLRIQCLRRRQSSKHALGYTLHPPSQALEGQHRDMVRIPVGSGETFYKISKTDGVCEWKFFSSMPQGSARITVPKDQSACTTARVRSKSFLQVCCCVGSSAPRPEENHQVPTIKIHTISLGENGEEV
The assay can be described thus: Antagonist activity at alpha1A adrenoceptor in Wistar rat vas deferans assessed as noradrenaline-induced contractions after 30 mins.

Assay [11] deals with T7, Alpha-1B adrenergic receptor (Rattus norvegicus) (UniProt P15823).
T7 sequence (whole entry): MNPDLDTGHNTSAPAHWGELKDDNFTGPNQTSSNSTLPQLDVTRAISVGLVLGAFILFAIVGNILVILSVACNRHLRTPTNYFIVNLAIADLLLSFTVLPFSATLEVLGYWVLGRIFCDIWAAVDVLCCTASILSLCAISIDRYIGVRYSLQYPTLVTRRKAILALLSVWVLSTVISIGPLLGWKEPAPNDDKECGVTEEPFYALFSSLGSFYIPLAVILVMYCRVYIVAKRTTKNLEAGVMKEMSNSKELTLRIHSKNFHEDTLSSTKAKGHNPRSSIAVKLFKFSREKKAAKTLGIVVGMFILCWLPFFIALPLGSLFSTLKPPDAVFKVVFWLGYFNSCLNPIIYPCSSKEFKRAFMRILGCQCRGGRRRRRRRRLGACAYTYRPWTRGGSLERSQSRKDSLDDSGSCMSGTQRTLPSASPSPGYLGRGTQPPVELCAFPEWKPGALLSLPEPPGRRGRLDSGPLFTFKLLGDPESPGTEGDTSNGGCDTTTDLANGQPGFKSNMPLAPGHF
The assay can be described thus: Antagonist activity at alpha1B adrenoceptor in Wistar rat spleen assessed as phenylephrine-induced contractions after 30 mins.

The target of assay [12] is T8, Alpha-1D adrenergic receptor (Rattus norvegicus, UniProt P23944).
T8 sequence (P23944 whole entry): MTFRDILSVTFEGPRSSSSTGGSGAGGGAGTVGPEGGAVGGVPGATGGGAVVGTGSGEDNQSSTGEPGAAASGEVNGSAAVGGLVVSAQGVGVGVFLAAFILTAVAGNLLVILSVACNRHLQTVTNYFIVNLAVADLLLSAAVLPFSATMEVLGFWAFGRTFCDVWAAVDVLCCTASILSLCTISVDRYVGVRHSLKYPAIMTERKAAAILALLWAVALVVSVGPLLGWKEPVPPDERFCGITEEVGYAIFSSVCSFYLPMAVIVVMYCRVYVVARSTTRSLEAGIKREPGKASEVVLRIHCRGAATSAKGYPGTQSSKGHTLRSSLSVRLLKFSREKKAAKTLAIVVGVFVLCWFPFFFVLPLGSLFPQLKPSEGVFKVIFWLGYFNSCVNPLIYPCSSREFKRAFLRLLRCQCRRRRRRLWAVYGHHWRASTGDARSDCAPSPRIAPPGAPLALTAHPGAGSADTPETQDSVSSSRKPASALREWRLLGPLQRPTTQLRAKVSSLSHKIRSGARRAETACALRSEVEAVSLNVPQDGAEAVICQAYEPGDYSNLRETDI
The assay can be described thus: Antagonist activity at alpha1D adrenoceptor in Wistar rat thoracic aorta assessed as noradrenaline-induced contractions after 30 mins. Type of assay: tissue-based. The following applies: read-out: pA2 (converted).

For assay [13], the species on record is Rattus norvegicus. The assay can be described thus: Selectivity ratio of pKb for alpha1A adrenoceptor in Wistar rat vas deferans to pKb for alpha1B adrenoceptor in Wistar rat spleen.
The species entered for assay [14] is Rattus norvegicus. The assay can be described thus: Selectivity ratio of pA2 for alpha1D adrenoceptor in Wistar rat thoracic aorta to pKb for alpha1A adrenoceptor in Wistar rat vas deferans.
Assay [15] is filed under the species Rattus norvegicus. The assay can be described thus: Selectivity ratio of pA2 for alpha1D adrenoceptor in Wistar rat thoracic aorta to pKb for alpha1B adrenoceptor in Wistar rat spleen.

Experimental findings from ChEMBL document CHEMBL3739306, “Enantiomeric resolution of [(2,2-diphenyl-1,3-dioxolan-4-yl)methyl](2-phenoxyethyl)amine, a potent 1and 5-HT1Areceptor ligand: an in vitro and computational study” (Medchemcomm, 2015) are described below.

In general, Ki refers to the equilibrium dissociation constant of an inhibitor or competing ligand from its target. In general, Emax refers to the size of the effect at its maximum, as opposed to the concentration needed. As a reminder, the pKb is the Kb on a negative log10 scale, so that one unit is a factor of ten.

SMILES strings stand for the structures.

Regarding `c1ccc(OCCNC[C@@H]2COC(c3ccccc3)(c3ccccc3)O2)cc1`, the Ki in assay [1] was 3.02 nM; in assay [3], 30.2 nM; in assay [4] it was 79.4 nM; in assay [5], 22.9 nM. Besides, the Emax in assay [2] was found to be 65.3%. In addition, the pD2 in assay [2] came out at 7.45. Besides, the Ratio pKi in the assay on CHO [6] came to 8; with CHO [7], 3; in the assay with CHO [8], 1; in the assay on CHO [9] it was 3. Also, the pKb in assay [10] worked out at 6.67; in [11], 6.51. In addition, the Kb in assay [12] is 5.13 nM. Further, the Ratio in the assay filed under Rattus norvegicus [13] was 1; in the assay listed under Rattus norvegicus [14], 23; in the assay filed under Rattus norvegicus [15], 34.

With `c1ccc(OCCNC[C@H]2COC(c3ccccc3)(c3ccccc3)O2)cc1`, the Ki in assay [1] was 3.8 nM; in assay [3], 126 nM; in assay [4], 115 nM; in assay [5], 14.5 nM. In [2], the Emax was 50%. Besides, the pD2 in assay [2] worked out at 6.85. Besides, the Ratio pKi in the assay with CHO [6] came to 4; in the assay with CHO [7], 1; in the assay on CHO [8], 9; in the assay on CHO [9], 8. In addition, the pKb in [10] came to 6.2; in assay [11], 6.14. The Kb in assay [12] was 24.5 nM. Moreover, the Ratio in the assay filed under Rattus norvegicus [13] was 1; in the assay filed under Rattus norvegicus [14], 26; in the assay listed under Rattus norvegicus [15] it was 30.

Regarding `c1ccc(OCCNCC2COC(c3ccccc3)(c3ccccc3)O2)cc1` (racemic), the pD2 in assay [2] worked out at 8.8. Also, the Ki in [5] is 11.7 nM. Also, the Ratio pKi in the assay with CHO [6] worked out at 3; with CHO [7] it was 2; in the assay on CHO [8], 3; in the assay with CHO [9], 5. Also, the figures for the pKb in [10] and in [11] were 6.16 and 5.86, respectively. In addition, in assay [12], the Kb is 6.31 nM. The Ratio in the assay filed under Rattus norvegicus [13] stood at 0.5; in the assay listed under Rattus norvegicus [14], 110; in the assay filed under Rattus norvegicus [15], 219.
